Row | Compound | logP
1 | COCCOCCOCCOc1ccccc1OCCOCCOCCOC | 0.38
2 | c1ccc2c(c1)OCCOCCOCCOCCOCCOCCOCCOc1ccccc1OCCO2 | 1.82
3 | c1ccc2c(c1)OCCOCCOc1ccccc1OCCOCCO2 | 2.2
4 | c1ccc2c(c1)OCCOCCOCCOCCOc1ccccc1OCCOCCOCCOCCO2 | 1.8
5 | c1ccc2c(c1)OCCOCCOCCOCCOCCOCCO2 | 0.57
6 | c1ccc2c(c1)OCCOCCOCCOCCOCCOCCOCCOc1ccccc1OCCOCCOCCOCCOCCOCCOCCO2 | 0.52
7 | COCCOCCOc1cccc(OCCOCCOC)c1 | 0.86
8 | c1ccc2c(c1)OCCOCCOCCOCCOCCOCCOCCOCCOCCO2 | 0.03
9 | c1ccc2c(c1)OCCOCCOCCOCCOCCOCCOCCOCCOCCOCCO2 | -0.09
10 | c1ccc2c(c1)OCCOCCOCCOCCO2 | 0.91
11 | c1ccc2c(c1)OCCOCCOCCOCCOCCO2 | 0.58
12 | COCCOCCOc1ccc(OCCOCCOC)cc1 | 0.76
13 | COCCOCCOc1ccccc1OCCOCCOC | 0.76
14 | c1ccc2c(c1)OCCOCCOCCOCCOCCOCCOc1ccccc1OCCOCCOCCO2 | 1.45
15 | c1ccc2c(c1)OCCOCCOCCOCCOCCOCCOc1ccccc1OCCO2 | 1.63
16 | c1ccc2c(c1)OCCOCCOCCOc1ccccc1OCCOCCOCCO2 | 2.11
17 | c1ccc2c(c1)OCCOCCOCCOCCOCCOCCOCCO2 | 0.45

Reference: the OPERA property sets (Mansouri et al. 2018)
